Measured values taken from ChEMBL document CHEMBL1201862, “PubChem BioAssay data set” (2004).
The source made the active and inactive calls.

Experiments:
[1] = molecular target: Cytochrome P450 2C19 (Homo sapiens, UniProt P33261); assay: Cytochrome panel assay with activity outcomes. Panel member name: p450-cyp2c19 Compounds with AC50 equal or less than 10 uM are considered active; type: functional
[2] = molecular target: Cytochrome P450 2C9 (Homo sapiens, UniProt P11712)
[3] = Luminescence Cell-Based Dose Confirmation HTS to Identify Activators of 5'UTR Stem-Loop Driven Alpha-Synuclein mRNA Translation in H4 Neuroglioblastoma Cells. [Related pubchem assays: 1829 (Project Summary), 1814 (Primary HTS)]; type: functional
[4] = Luminescence Cell-Based Dose Response HTS to Identify Activators of Luciferase Translation or Activity in H4 […] Cells. [Related pubchem assays: 1829 (Project Summary), 1814 (Primary HTS)]; type: functional
[5] = system: BJ; assay: cytotoxicity toward BJ-TERT fibroblasts, dose response, cell-based, RAS-independent, luminescence (AID 1933); type: functional; details: Homo sapiens
[6] = system: H4; assay: Luminescence Cell-Based Dose Response HTS to Identify Activators of 5'UTR Stem-Loop Driven Prion Protein mRNA Translation in H4 Neuroglioblastoma Cells. [Related pubchem assays: 1829 (Project Summary), 1814 (Primary HTS)]; type: functional; details: Homo sapiens
[7] = system: BJ; assay: cells; type: functional, cell-based; details: Homo sapiens
[8] = system: BJ; assay: cytotoxicity toward BJ-TERT-LT-ST fibroblasts, dose response, cell-based, RAS-independent, luminescence (AID 1935); type: functional; details: Homo sapiens;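 further: BJ fibroblasts immortalized with TERT plus LT and ST oncogenes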
[9] = cytotoxicity toward DRD oncogenic fibroblasts, dose response, cell-based, non-viral oncogenic, luminescence (AID 1934); type: functional; details: Homo sapiens
[10] = molecular target: T1, Microphthalmia-associated transcription factor (Homo sapiens, UniProt O75030); assay: TRPM1 promoter luciferase signal decrease, dose response, MITF inhibitor project, cell-based, SK-MEL-5, cherry-picked, set 3 (AID 493073); type: functional
T1 sequence (O75030 whole entry): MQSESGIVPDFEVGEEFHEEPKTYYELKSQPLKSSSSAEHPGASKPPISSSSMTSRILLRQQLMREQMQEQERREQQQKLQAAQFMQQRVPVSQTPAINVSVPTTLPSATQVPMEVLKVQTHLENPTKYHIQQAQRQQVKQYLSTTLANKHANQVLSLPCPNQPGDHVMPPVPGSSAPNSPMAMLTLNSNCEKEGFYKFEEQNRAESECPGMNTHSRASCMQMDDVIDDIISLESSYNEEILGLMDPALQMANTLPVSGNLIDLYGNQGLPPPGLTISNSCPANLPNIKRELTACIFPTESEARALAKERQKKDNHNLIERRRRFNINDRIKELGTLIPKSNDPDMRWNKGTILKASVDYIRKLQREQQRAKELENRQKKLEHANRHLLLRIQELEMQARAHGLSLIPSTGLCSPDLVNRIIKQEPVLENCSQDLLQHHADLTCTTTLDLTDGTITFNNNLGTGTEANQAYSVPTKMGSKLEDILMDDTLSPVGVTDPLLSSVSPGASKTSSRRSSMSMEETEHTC

[11] = molecular target: T2, Protein skinhead-1 (Caenorhabditis elegans, UniProt P34707); type: functional
T2 sequence (P34707 whole entry): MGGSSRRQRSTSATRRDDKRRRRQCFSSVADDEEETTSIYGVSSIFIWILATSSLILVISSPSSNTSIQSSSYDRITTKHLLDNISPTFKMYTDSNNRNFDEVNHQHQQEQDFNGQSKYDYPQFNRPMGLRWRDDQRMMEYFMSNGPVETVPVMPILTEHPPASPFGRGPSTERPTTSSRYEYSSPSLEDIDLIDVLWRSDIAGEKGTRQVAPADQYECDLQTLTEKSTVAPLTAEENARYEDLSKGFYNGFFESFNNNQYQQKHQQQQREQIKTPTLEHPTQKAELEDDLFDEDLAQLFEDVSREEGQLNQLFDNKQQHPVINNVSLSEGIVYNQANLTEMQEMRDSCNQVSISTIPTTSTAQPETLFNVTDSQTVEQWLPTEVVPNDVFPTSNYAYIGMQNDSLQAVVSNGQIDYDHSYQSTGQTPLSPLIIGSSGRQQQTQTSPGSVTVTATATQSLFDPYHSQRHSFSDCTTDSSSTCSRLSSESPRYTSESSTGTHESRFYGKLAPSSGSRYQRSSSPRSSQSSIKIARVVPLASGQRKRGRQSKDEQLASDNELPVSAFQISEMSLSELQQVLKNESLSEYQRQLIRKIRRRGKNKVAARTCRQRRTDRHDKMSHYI

[12] = molecular target: Luciferin 4-monooxygenase (Photinus pyralis, UniProt P08659); assay: firefly luciferase enzyme inhibitors, dose response, biochemical, luminescence (AID 1891)
[13] = Luminescence Cell-Based Dose Confirmation HTS to Identify Inhibitors of Platelet Dense Granule Release. [Related pubchem assays: 1663 (Primary HTS), 1678 (Summary of Project)]; type: functional
[14] = molecular target: T3, Heat shock factor protein 1 (Mus musculus, UniProt P38532); assay: HSF1 potentiators in luciferase reporter cells, confirmation, cell-based, NIH3T3, luminescence, dose retest (AID 435004); type: functional;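 further: stress induced by proteasome inhibitor MG132 added 30 min after compound; luciferase reporter driven by HSF1 response element in NIH3T3 cells; actives raise luminescence as potentiators of the MG132 stress response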
T3 sequence (P38532 whole entry): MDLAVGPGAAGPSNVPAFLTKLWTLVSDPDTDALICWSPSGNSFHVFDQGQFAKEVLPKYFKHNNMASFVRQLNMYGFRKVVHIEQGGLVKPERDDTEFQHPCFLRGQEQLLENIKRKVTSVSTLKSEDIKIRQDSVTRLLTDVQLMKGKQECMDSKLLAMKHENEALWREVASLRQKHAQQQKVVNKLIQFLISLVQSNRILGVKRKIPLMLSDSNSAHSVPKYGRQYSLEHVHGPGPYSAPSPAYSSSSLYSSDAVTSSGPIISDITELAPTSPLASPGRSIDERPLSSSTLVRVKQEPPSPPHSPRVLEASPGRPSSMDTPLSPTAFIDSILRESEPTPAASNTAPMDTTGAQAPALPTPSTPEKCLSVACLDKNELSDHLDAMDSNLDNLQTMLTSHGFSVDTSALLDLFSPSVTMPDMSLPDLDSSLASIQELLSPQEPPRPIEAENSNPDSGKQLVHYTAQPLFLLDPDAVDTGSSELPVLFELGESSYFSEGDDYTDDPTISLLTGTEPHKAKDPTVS

[15] = molecular target: Genome polyprotein (dengue virus type 2, UniProt P29990); assay: Dengue-2 NS5 methyltransferase inhibitors, primary screen, biochemical, confirmation dose response (AID 588689); type: functional
[16] = molecular target: T4, Cytochrome P450 1A2 (Homo sapiens, UniProt P05177)
T4 sequence (P05177 whole entry): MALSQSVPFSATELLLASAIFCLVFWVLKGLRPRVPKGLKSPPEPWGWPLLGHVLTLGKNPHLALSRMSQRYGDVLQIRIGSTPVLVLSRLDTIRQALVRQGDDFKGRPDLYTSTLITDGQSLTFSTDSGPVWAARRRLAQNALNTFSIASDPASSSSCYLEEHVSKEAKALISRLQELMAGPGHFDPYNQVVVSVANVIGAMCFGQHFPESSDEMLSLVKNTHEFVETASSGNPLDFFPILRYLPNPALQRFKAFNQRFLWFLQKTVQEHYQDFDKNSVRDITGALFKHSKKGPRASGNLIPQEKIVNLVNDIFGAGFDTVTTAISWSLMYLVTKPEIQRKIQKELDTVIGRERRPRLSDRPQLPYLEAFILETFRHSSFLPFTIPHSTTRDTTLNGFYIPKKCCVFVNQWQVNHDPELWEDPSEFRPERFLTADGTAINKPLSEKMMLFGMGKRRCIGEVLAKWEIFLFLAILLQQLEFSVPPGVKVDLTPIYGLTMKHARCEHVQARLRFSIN

[17] = molecular target: Tumor necrosis factor (Homo sapiens, UniProt P01375); assay: TNFa-triggered NF-kB activation inhibitors, SAR follow-up, cell-based, revised (AID 2337); type: functional
[18] = molecular target: T5, Nucleotide-binding oligomerization domain-containing protein 1 (Homo sapiens, UniProt Q9Y239); assay: NOD1 signaling inhibitors, SAR follow-up, revised (AID 2333); type: functional
T5 sequence (Q9Y239 whole entry): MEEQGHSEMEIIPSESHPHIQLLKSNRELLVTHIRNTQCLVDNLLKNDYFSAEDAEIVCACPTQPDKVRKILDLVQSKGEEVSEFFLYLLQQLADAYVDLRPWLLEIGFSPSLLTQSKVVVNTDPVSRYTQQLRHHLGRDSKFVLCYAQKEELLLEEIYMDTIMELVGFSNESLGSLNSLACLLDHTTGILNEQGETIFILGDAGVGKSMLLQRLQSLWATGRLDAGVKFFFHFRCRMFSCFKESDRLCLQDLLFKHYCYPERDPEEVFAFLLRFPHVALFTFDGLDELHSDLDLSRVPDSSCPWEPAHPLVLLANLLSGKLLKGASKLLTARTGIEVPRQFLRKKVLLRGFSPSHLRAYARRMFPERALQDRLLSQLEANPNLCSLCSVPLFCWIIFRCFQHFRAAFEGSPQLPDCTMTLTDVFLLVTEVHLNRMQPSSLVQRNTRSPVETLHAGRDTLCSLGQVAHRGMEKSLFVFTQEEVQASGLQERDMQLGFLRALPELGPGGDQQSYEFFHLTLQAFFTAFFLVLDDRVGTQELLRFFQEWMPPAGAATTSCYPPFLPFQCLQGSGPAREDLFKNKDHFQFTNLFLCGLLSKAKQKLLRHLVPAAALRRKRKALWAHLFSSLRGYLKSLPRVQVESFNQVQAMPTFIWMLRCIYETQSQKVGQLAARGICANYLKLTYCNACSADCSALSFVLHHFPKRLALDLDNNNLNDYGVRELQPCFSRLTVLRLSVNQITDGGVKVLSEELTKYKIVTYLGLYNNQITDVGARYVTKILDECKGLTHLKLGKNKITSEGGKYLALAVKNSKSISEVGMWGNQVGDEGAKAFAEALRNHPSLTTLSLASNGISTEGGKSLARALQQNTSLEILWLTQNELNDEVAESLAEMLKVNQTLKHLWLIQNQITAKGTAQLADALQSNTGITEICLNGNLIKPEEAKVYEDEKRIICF

[19] = system: HEK293; assay: cells; details: Homo sapiens;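 further: cells exposed to compound for 14 hours overnight before viability readout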
[20] = Luminescence Cell-Based Dose Retest to Confirm Inhibitors of Cancer Stem Cells. [Related pubchem assays (depositor defined):AID2717, AID2721]; type: functional; details: Homo sapiens
[21] = molecular target: Cytochrome P450 3A4 (Homo sapiens, UniProt P08684);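 further: CYP3A4 tested as one member of a cytochrome P450 panel screen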
Chain of Cytochrome P450 3A4 (P08684 whole entry): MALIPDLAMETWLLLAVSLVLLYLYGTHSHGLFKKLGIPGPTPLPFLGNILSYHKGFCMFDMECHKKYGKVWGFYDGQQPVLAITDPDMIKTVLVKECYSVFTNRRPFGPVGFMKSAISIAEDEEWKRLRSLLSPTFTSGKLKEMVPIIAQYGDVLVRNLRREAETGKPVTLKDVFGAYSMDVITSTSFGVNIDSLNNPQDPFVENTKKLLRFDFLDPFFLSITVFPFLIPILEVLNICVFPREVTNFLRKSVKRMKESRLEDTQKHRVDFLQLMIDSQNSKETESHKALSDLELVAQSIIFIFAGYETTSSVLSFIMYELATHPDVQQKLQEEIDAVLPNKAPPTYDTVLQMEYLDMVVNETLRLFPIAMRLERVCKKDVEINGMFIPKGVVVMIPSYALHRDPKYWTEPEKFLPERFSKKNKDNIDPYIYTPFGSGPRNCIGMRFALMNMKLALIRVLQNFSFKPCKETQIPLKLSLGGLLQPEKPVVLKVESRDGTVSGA

Chain of Cytochrome P450 2C9 (P11712 whole entry): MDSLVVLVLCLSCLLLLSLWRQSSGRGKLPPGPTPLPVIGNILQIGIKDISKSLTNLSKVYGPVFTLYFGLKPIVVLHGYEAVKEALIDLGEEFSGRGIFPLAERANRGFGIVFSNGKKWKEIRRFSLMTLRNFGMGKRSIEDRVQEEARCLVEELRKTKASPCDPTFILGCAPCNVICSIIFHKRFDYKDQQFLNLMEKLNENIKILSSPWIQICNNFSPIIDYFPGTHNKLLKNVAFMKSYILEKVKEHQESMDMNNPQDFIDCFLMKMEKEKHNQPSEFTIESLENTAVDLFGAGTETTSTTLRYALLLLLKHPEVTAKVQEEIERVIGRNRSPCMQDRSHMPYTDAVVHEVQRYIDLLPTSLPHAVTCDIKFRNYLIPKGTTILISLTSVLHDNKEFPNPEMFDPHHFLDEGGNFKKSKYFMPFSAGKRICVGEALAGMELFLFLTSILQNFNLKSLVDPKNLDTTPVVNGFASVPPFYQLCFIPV
Chain of Tumor necrosis factor (P01375 whole entry, the tested form may be a part): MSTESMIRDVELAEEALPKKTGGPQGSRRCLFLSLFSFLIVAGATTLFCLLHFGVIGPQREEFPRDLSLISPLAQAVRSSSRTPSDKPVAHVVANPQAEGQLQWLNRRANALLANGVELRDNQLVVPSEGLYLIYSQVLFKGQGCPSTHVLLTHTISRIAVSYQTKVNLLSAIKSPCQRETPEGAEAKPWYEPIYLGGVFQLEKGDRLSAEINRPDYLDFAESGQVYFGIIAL
Chain of Cytochrome P450 2C19 (P33261 whole entry): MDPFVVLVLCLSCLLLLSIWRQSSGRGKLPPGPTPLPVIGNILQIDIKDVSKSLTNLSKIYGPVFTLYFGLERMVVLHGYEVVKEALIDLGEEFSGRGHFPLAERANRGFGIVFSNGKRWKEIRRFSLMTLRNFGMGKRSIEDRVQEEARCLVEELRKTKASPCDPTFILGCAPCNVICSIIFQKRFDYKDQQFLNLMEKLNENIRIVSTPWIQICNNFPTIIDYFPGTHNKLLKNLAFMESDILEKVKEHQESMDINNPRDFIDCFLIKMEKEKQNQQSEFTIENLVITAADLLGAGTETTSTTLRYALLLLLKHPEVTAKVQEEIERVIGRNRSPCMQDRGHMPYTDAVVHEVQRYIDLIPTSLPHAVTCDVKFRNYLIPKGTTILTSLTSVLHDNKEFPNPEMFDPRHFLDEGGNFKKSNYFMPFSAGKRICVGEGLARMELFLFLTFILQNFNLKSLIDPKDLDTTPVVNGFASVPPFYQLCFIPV
Chain of Luciferin 4-monooxygenase (P08659 whole entry): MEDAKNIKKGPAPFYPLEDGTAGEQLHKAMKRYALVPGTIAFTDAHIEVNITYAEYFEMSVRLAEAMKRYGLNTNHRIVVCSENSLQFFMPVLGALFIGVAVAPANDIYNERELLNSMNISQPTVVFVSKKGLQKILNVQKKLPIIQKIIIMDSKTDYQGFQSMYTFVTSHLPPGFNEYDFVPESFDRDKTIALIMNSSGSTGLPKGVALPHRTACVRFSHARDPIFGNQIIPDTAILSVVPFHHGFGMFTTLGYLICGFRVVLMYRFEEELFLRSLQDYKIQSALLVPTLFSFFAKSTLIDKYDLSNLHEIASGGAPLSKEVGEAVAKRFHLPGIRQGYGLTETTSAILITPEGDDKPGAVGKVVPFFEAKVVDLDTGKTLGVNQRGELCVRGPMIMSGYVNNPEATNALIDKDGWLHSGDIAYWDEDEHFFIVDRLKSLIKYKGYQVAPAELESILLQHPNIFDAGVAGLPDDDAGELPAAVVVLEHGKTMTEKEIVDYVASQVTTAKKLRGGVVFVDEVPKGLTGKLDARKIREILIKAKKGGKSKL
Chain of Genome polyprotein (P29990 2492-3391 limits assumed): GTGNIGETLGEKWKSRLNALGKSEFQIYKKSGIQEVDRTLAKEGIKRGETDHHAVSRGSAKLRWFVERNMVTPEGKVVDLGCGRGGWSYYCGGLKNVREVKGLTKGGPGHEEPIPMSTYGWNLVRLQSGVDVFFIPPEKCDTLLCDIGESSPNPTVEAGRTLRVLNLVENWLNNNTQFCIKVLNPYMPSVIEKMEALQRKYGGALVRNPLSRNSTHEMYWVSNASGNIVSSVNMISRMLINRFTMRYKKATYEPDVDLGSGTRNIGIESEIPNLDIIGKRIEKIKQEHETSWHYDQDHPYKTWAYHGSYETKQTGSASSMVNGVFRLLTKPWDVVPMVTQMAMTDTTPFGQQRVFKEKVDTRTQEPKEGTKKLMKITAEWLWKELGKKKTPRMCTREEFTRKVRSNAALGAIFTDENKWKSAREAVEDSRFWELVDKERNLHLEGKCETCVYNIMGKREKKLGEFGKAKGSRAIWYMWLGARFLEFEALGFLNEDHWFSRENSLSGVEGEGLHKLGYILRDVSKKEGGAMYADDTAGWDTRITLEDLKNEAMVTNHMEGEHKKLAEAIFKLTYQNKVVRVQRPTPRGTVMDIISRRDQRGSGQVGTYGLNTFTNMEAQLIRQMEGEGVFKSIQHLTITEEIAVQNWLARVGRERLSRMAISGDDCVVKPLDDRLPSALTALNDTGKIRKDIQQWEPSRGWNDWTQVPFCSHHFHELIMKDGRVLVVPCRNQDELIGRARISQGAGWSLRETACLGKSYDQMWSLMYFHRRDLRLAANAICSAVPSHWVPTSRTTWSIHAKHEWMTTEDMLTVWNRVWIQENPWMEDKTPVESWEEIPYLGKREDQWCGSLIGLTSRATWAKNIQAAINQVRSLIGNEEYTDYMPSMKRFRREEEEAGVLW

With `Cc1cc(C(=O)O)c(O)nc1C` the AC50 [1] was “inconclusive” and the AC50 [2] was “inconclusive”.
In the case of `COc1cc2c(cc1OC)C(c1ccccc1)N(C(=O)CCl)CC2` (stereo not given), the EC50 [3] is reported as > 120 µM (not active), the EC50 [4] is reported as > 120 µM (not active) and the EC50 [5] is reported as 5.08 µM (inconclusive). For the same compound, the EC50 [6] was > 120 µM (not active), the EC50 [7] was 7.81 µM (inconclusive) and the EC50 [8] was 4.74 µM (active). The EC50 [9] was 8.09 µM (active), the AC50 [10] was 5.36 µM (active) and the IC50 [11] was > 100 µM (inactive).
For `CC1(C)CC(=O)C=C(NC2=CC3OC(c4ccccc4)OCC3OC2=O)C1` (stereo not given), the EC50 [12] was > 112 µM (not active), the EC50 [13] was 14.8 µM (active) and the EC50 [14] was 6.65 µM (inconclusive). For the same compound, the AC50 [10] was 7.71 µM (active) and the IC50 [15] was > 100 µM (active).
With `COc1ccc(OC)c2nc(O)c(CCNC(=O)C3CCCCC3)cc12` the AC50 [16] was 20 µM (inconclusive) and the AC50 [2] was “inconclusive”.
With `CSc1ccc(NC(=O)c2ccc(CN3CCc4ccccc43)cc2)cc1` the IC50 [17] was > 20 µM (inactive), the IC50 [18] was > 20 µM (inactive) and the IC50 [19] was > 20 µM (inactive).
For `N#Cc1cccc(NC(=O)CSc2nc3scc(-c4ccccc4)c3c(=O)[nH]2)c1`, the IC50 [17] was > 20 µM (inactive), the IC50 [18] was > 20 µM (inactive) and the IC50 [19] was > 20 µM (inactive).
For `COc1cccc(/C=N/NC(=O)CSc2nnc(C)n2-c2ccccc2)c1O`, the AC50 [20] was 11.9 µM (active), the AC50 ([1]; read-out: AC50) was 31.6 µM (inconclusive) and the AC50 [16] was 35.5 µM (inconclusive). For the same compound, the AC50 [21] was 4.47 µM (inconclusive) and the AC50 [2] was “inconclusive”.
In the case of `NS(=O)(=O)c1cc(Cl)c(Cl)c(S(N)(=O)=O)c1` [DICHLORPHENAMIDE], the AC50 [2] is reported as “inconclusive”.
